Measurements as given in article PMC4007625, “A phase I study of AST1306, a novel irreversible EGFR and HER2 kinase inhibitor, in patients with advanced solid tumors” (Journal of Hematology & Oncology, 2014).
pIC50: −log10 of the molar value.

Key:
EGFR = test system: EGFR; parameters: method as in PMID 21789172, PMID 18408761, PMID 15728811, PMID 15737014, PMID 17085664; conditions: cited from earlier work
HER2 = test system: HER2; parameters: method as in PMID 21789172, PMID 18408761, PMID 15728811, PMID 15737014, PMID 17085664; conditions: preclinical; read-out: IC50 inhibiting HER2; cited from earlier work
clinical = conditions: human, in vivo; for AUC(0-inf): AUC0-∞
Experimental: This was the first-in-human phase I dose-escalation study of AST1306 for patients with advanced solid tumors. AST1306 was orally administered without food for one day followed by two days off to evaluate single dose PK profiles. After that, it was continuously administered for 21 days and two days off to assess multiple dose PK profiles and safety. […] Three times daily in three dose levels (800 mg TID, 1000 mg TID and 1200 mg TID) were explored subsequently. Treatment was then repeated at the same dose level in 28-day cycles until unacceptable toxicities, disease progression or the patient’s withdrew from the study. PK extension study was performed to enroll additional patients up to at least eight patients per dose cohort in three dose levels (MTD, one or two doses level lower than the MTD) for further evaluation of PK profiles.
All PK sampling was performed in the first cycle. Plasma concentrations of AST1306 single-day dosing were determined at the following distinct time points: pre-dose, 0.5 h, 1 h, 1.5 h, 2 h, 3 h, 4 h, 6 h, 8 h, 10 h, 12 h, 24 h, 36 h, and 48 h after the single dose administration in the 400 mg QD and 800 mg QD dose cohorts. For the next five dose cohorts with twice daily (once every 12 hours) administration, the time points of plasma sample collection were as follows: pre-dose, 0.5 h, 1 h, 1.5 h, 2 h, 3 h, 4 h, 6 h, 8 h, and 12 h after the first dose administration, and pre-dose, 1 h, 2 h, 3 h, 4 h, 6 h, 8 h, 12 h, and 24 h after the second dose administration. Three dose cohorts with three times daily (once every 8 hours) administration were further investigated with distinct time points for plasma collecting (pre-dose, 0.5 h, 1 h, 1.5 h, 2 h, 3 h, 4 h, 6 h, and 8 h after the first dose administration; 1 h, 2 h, 3 h, 4 h, 5 h, 6 h, and 8 h after the second dose administration; 1 h, 2 h, 3 h, 4 h, 8 h, 12 h, 24 h, and 36 h after the third dose administration). PK parameters of AST1306 were also determined on days 10, 23 (pre-dose and 2 h after the first dosing), and 24 (steady state, the same time points as the first-day dosing) of continuous treatment. The PK sampling schedule for the PK extension phase was totally the same as that for the dose escalation study.
PK analysis was conducted using Phoenix WinNonlin® software (version 6.1, Pharsight, Mountainview, CA). Standard non-compartmental methods were used to calculate the area under the plasma concentration-time curve over the time interval from 0 to 24 h (AUC0–24,ss), maximum measured concentration of the analyte in plasma (Cmax), and terminal half-life of the analyte in plasma (t1/2). Time from dosing to the maximum concentration of the analyte in plasma (tmax,) was reported as a median value. The concentration at the trough level was determined using the concentration at 24 h (C24) on steady state days.
The power model method was used to assess the dose proportionality. The differences between fed and fasting conditions were assessed by ANOVA, and 90% confidence intervals for ratios were given.

In the case of `C=CC(=O)Nc1ccc2ncnc(Nc3ccc(OCc4cccc(F)c4)c(Cl)c3)c2c1` [AST1306], the “fold more potent than afatinib and dacomitinib” value (EGFR; EGFR and HER2 IC50) is given as 5-15 fold, the pIC50 (EGFR; preclinical, read-out: IC50 inhibiting EGFR) is given as 9.30 and the pIC50 (HER2) is given as 8.52. For the same compound, the Tmax (clinical) was 2.65 (43.8) h, the “multiple-dose vs single-dose exposure (mean accumulation ratio R, AUCss day 23–24 / AUC0-24h day 1)” value (clinical) was “no more than 3 fold” and the t1/2z (clinical) was 5.56 (51.6) h. For the same compound, the AUC0-24 h (clinical; 400 mg) was 116 ng·h/mL, the “AUC0-∞” value (clinical; 400 mg) was 119 ng·h/mL and the AUC(0-t) (clinical; 400 mg) was 116 ng·h/mL. For the same compound, the Cmax (clinical; 400 mg) was 22.6 ng/mL, the “R_AUC (accumulation ratio, AUCss days 23–24 / AUC0-24h day 1)” value (clinical; 400 mg) was 2.81 and the Tmax (clinical; 400 mg) was 2.00 h. For the same compound, the t1/2z (clinical; 400 mg) was 4.66 h, the λz (clinical; 400 mg) was 0.149 h⁻¹ and the Cmax3 (clinical; 600 mg) was 64.5 (69.4) ng/mL. The Cmax (clinical; 800 mg) was 50.0 (16.0) ng/mL, the Cmax2 (clinical; 800 mg) was 74.3 (20.4) ng/mL and the Cmax (clinical; 800 mg, Cmax) was 67.7 ng/mL. For the same compound, the AUC0-24 h (clinical; 1000 mg) was 696 (57.6) h*ng/mL, the “AUC0-∞” value (clinical; 1000 mg) was 792 (54.1) h*ng/mL and the AUC(0-t) (clinical; 1000 mg) was 781 (54.7) h*ng/mL. For the same compound, the Cmax (clinical; 1000 mg) was 75.0 (52.1) ng/mL, the Cmax3 (clinical; 1000 mg) was 89.7 (42.1) ng/mL and the AUC(0-t) (clinical; 1000 mg, AUC0-24 h) was 1130 ng·h/mL. It also gave an AUC(0-t) (clinical; 1000 mg, AUC0-t) of 1420 ng·h/mL, an AUC(0-inf) (clinical; 1000 mg) of 1.43 µg·h/mL and a Cmax (clinical; 1000 mg, Cmax) of 47.3 ng/mL. For the same compound, the Cmax (clinical; 1200 mg) was 50.9 (70.6) ng/mL, the Cmax3 (clinical; 1200 mg) was 210.0 (81.5) ng/mL and the Cmax (clinical; 1200 mg, Cmax) was 61.9 ng/mL. For the same compound, the Cmax2 (clinical; 1500 mg) was 103.0 (25.8) ng/mL, the “R_AUC (accumulation ratio, AUCss days 23–24 / AUC0-24h day 1)” value (clinical; 1500 mg) was 0.87 (32.0) and the Tmax (clinical; 1500 mg) was 1.92 (30.5) h. For the same compound, the t1/2z (clinical; 1500 mg) was 3.48 (12.8) h, the λz (clinical; 1500 mg) was 0.202 (13.3) 1/h and the AUC(0-t) (clinical; 1500 mg, AUC0-24 h) was 997 ng·h/mL. The AUC(0-t) (clinical; 1500 mg, AUC0-t) was 1190 ng·h/mL, the AUC(0-inf) (clinical; 1500 mg) was 1.2 µg·h/mL and the Cmax (clinical; 1500 mg, Cmax) was 57.1 ng/mL. For the same compound, the half-life (clinical; gMean terminal half-life) was 3.33 to 7.57 h, the “time to Cmax after oral administration” value (clinical; po) was 1.83 to 3.67 h and the half-life (clinical; t1/2) was 3 to 5 h. The half-life (clinical; terminal half-life) was 3.48 to 5.56 h.
